From patent publication US20190298717A1 (BOARD OF REGENTS, THE UNIVERSITY OF TEXAS SYSTEM, priority 2016, published 2019)

Key:
SH-SY5Y cells [1] = assay: Protein carbonyl assay (2,4-DNPH) in H2O2-stressed cells; type: cell-based, human; conditions: 100 μM H2O2 24 h, 10 and 25 μM compound
Procedure: To generate intracellular aldehydes, the inventors treated human neuroblastoma cell line (SH-SY5Y) with 100 μM hydrogen peroxide (H2O2) for 24 h. Carbonyl groups were quantified using 2,4-DNPH (dinitrophenylhydrazine) assay.
Protein carbonyl Assay. Protein carbonyls were measured using a commercially available kit (MAK094; Sigma-Aldrich, St. Louis, Mo.). Cells were first lysed in lysis buffer provided by the kit.
Following centrifugation, 100 μL of supernatant was added to 10 μL of 10% […] solution, was incubated at room temperature for 10 min and re-centrifuged to remove interfering nucleic acids. Carbonyl content of supernatant was determined by adding 2, 4-dinatrophenylhydrazine followed by detection of dinitrophenyl hydrazine adduct at 375 nm in a 96 well plate reader. The protein content of each sample was determined using a bicinchoninic acid (BCA) assay, Thermo Fischer, Waltham, Mass.).

[2] = test system: GCLc, GCLm, HO-1, and NQO-1; conditions: SH-SY5Y, 24 h
Procedure: (§1) GSH is regulated by the rate-limiting enzyme GCL consisted of GCLc and GCLm subunits. […] The inventors then used extracellular lactate dehydrogenase cytotoxicity assay to measure cell survival.
Western Blot Analysis. Protein expression was determined by Western blot analysis. Equal amount of protein from each sample was run in Tris-glycine SDS PAGE gel, followed by transferring to PVDF membrane. After blocking the membrane with 5% milk for 1 hour at room temperature, the membrane was incubated further for 2 hours with antibodies specific for target proteins: Nrf2, pNrf2(S40) from Novus (Littleton, Colo.); Keap1, HO-1, NQO1, GCLc, GCLm and lamin B1 from Cell Signaling (Danvers, Mass.); GAPDH from Santa Cruz (Dallas, Tex.); β-Actin from Thermo Fisher (Waltham, Mass.). The membrane was subsequently incubated with species-specific HRP-conjugated secondary antibody followed by incubation with chemiluminescence substrate and imaging. The band intensity of each of the target proteins was quantified using ImageQuant software (GE Healthcare, Sweden). Western blot analysis on worm lystaes was done similarly. […] Equal amounts of protein were run on the gel and SKN-1 protein level was detected using anti-GFP antibody.

GSH and GSSG = conditions: SH-SY5Y, 10 μM, 24 h
Procedure: as §1
Measurement of GSH/GSSG. The intracellular GSH and GSSG content were determined using a GSH/GSSG-Glo Assay kit (Promega, Fitchburg Wis.) following the manufacturer's instructions. Briefly, after treatment, half of the cells were lysed using total lysis buffer and the other GSSG lysis buffer for 5 minutes. Luciferin generation reagents (luciferin-NT plus Glutathione-S-Transferase) were then added into each well, followed by incubation for 30 minutes. Finally, luciferin detection reagents including Ultra-Glo™ Luciferase were aliquoted into each well. After 10-minute incubation, luminescence was read in a 96-well plate reader. GSH level was calculated by subtracting GSSG level from the total, and GSH/GSSG ratio was calculated as ([Total]−[GSSG])/[GSSG].

C. elegans [3] = test system: C. elegans
Procedure: (§2) Measurement of Reactive Oxygen Species. Superoxide concentration was measured by dihydroethidium (DHE). Black clear bottom 96 well plates were seeded with about 5000 HEK293 tau aggregate-negative (control) and aggregate-positive model cells per well and about 20000 SH-SY5Y cells (the NRF2 knockdown of both cell lines were also seeded). […] Fluorescence was measured by Spectramax Gemini XPS plate reader (Molecular Devices, Sunnyvale, Calif.) at 370 nm excitation and 420 nm emission wavelengths. […] Equal number of animals were transferred to a black bottom 96 well plate and fluorescence was measured same as above.

[4] = test system: HEK293 tau aggregate-negative and aggregate-positive cells
Procedure: The inventors first measured the cell proliferation to evaluate the stress caused by expression of tau fibrils in aggregate-positive and negative cells (FIG. 6A). […] The inventors also measured the concentration of superoxide ions (O2-), a detrimental byproduct of oxidative phosphorylation, as an ROS representative. […] The inventors next measured expression of Nrf2 and HO-1 in the same cells (FIG. 6C). […] Aggregate-positive and -negative KD cells were treated with 200 μM H2O2 for 24 h. Cytotoxicity was measured as release of LDH.
as §2

C. elegans [5] = test system: C. elegans; remark: listed apart in the source
Procedure: The inventors also evaluated locomotion in worms to investigate the health of the rescued animals.
Locomotion Assays. To measure locomotion, worms were subjected to 30 seconds video recording on a Zeiss Axio Zoom. V16 fluorescence dissecting microscope equipped with Axiocam 503 and ZEN2 software. Bending rate (the number of body-bends-per-seconds) was measured by placing live animals on a plate containing M9 buffer, filming for 30 seconds and counting the number of bends. Healthiness of the worms was measured by their bending rate of young, middle aged and aged animals. […] The results were obtained from 3 individual trials.

[6] = test system: NMNAT-1, SIRT1, SIRT5 and COX-IV
From the text: Data were normalized to actin. […] The intensity of the bands was normalized to actin. Data are mean±SEM of triplicate measurements.

SH-SY5Y cells [7] = assay: Mitochondrial membrane potential (TMRE); type: cell-based, human; conditions: hydralazine 0, 10, 20 μM; isoniazid 20 μM
Procedure: Cells were stained by TMRE to tag active mitochondria. Florescence signal was quantified by Flow Jo software. […] ATP levels were measured by bioluminescent detection of luciferase activity. All data are presented normalized to cell number.
The mitochondrial membrane potential was measured as an indicator of cellular energetics and ATP content.

[8] = test system: HEK293 overexpressing mutated tau-RD (P301L/V337M), Clone 9; conditions: 10 μM, 48 h
Procedure: Two monoclonal cell lines of HEK293 overexpressing mutated tau-RD (repetitive domain; P301L/V337M) were selected; 1) Clone 1: used as control expressing truncated tau from amino acid 244 to 372, with P301L/V337M mutations which produces soluble non-toxic tau, and 2) Clone 9: which generates an aggregated form of tau (11). Three parameters were measured: cell viability, NAD, and ATP content.

Nrf2 pathway = conditions: SH-SY5Y, 10 μM, 24 h
Procedure: Cell culture in SILAC media and Lysate Preparation. SHY-SY5Y cells were grown in Dulbecco's modified Eagle's medium containing either unlabeled L-Proline, L-arginine (Argo) and L-lysine (Lyso) or L-Proline, heavy isotope-labeled L-arginine-^13C6^14N4(Arg^10) and L-lysine-^13C6-^15N2 (Lys^8) (Cambridge Isotope Laboratories, Inc.) supplemented with 10% dialyzed fetal bovine serum (Thermo Fischer, Waltham, Mass.). […] After treatment, cells were harvested by trypisinization, washed three times with cold PBS and lysed in a buffer containing 6M Urea, 2M Thio-urea, 1% SDS and 100 mM Tris/HCl, pH 8.0 with protease (Thermo Fischer, Waltham, Mass.) and phosphatase inhibitors. After incubation for 15 min at RT and sonication, the samples were clarified by centrifugation for 15 min at 20,000×g. Protein content was determined using the 660 nM protein assay kit (Thermo Fisher, Waltham, Mass.) according to the manufacturer's instructions.
Protein Digestion and Peptide Fractionation. […] The mix digest (300 μg) was then fractionated into six fractions via strong cation exchange (SCX). […]
Mass Spectrometry for SILAC. All the fractions were analyzed using a Q-Exactive HF mass spectrometer (Thermo Electron, Burlingame, Calif.) coupled to an Ultimate 3000 RSLCnano HPLC systems (Thermo Electron, Sunnyvale Calif.). […]

Keap1-Nrf2 = Keap1-Nrf2 (Homo sapiens, UniProt Q14145); conditions: data not shown
Sequence of Keap1-Nrf2 (Q14145 whole entry): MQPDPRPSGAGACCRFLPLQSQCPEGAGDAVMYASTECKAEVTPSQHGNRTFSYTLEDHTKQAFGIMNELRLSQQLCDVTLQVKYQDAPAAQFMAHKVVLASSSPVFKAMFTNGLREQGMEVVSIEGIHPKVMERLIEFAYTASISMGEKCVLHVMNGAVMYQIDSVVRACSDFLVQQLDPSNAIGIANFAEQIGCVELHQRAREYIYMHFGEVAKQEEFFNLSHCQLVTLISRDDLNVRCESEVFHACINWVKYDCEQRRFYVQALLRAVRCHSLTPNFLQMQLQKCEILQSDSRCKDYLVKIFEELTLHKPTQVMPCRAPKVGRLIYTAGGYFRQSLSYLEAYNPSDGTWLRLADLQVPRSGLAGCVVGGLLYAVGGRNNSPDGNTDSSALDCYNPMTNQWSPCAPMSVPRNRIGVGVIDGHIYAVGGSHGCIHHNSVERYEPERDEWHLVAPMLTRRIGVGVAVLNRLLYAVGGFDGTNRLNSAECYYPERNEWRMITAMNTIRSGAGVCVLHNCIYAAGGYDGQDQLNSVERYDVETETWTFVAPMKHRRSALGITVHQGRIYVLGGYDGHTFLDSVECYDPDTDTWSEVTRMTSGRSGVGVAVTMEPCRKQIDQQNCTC

In the case of `NNc1nncc2ccccc12` [Hydralazine], the protein carbonyls (SH-SY5Y cells [1]) is reported as “significantly reduced the carbonyl level”, the protein carbonyls (SH-SY5Y cells [1]; listed as hydralazine) is reported as “reduced protein carbonyls significantly” and the HO-1 upregulation [2] is reported as 30%. The NQO-1 upregulation [2] was 40%, the “expression of GCLc, GCLm, HO-1, and NQO-1” value ([2]; Western blotting) was “significant increase in expression” and the “GSH/GSSG ratio, higher” value (GSH and GSSG) was 5%. For the same compound, the “intracellular GSH” value (GSH and GSSG) was “increased GSH”, the “superoxide concentration in N2 worms” value (C. elegans [3]) was “decreased superoxide concentration” and the “concentration of O2− ions in aggregate-positive KD cells” value ([4]; Nrf2 knockdown) was “No significant change”. The concentration of superoxide ([4]; aggregate-positive and -negative cells, 24 h) was “decreased in a dose-dependent manner”, the “locomotor performance in skn-1(zu135) animals” value (C. elegans [5]; 4, 8, 12 days) was “did not improve” and the “locomotor performance of young (5 days), middle age (10 days), and old (15 days) N2 animals” value (C. elegans [5]; N2) was “significant improvement”. The “locomotor performance of pre-treated animals exposed to rotenone” value (C. elegans [5]; N2, 100 μM, 50 μM rotenone 6 h) was “superior locomotor performance”, the “transcription level of NMNAT-1, SIRT1, SIRT5 (qRT-PCR)” value ([6]; 20 μM, 12 hours) was “increased the transcription level” and the “NMNAT-1, SIRT1, SIRT5 protein (Western blot)” value ([6]; 10 and 20 μM) was “up-regulated at the protein level”. For the same compound, the “level of COX-IV” value ([6]; after 48 hours) was “significant increase”, the “mitochondrial membrane potential / mitochondrial function (TMRE)” value (SH-SY5Y cells [7]) was “improves mitochondrial function in a dose dependent manner” and the “cell viability, NAD, and ATP content of Clone 9” value [8] was “shows improvement in all three aspects”. For the same compound, the “Nrf2 pathway activation, IPA Z score” value (Nrf2 pathway) was 0.156 and the “direct binding and interruption of Keap1-Nrf2 interaction” value (Keap1-Nrf2) was “ruled out the direct binding hypothesis”.
